Reference: US20170045513A1, “METHODS OF DIAGNOSING CELIAC DISEASE USING IP-10” (ImmusanT, Inc., priority 2014, published 2017)
Non-standard residues stand in square brackets, D forms with d. pGlu = O=C1CC[C@@H](C(=O)O)N1

Test system: gluten-reactive T cells
Assay: 96-well plate whole blood cytokine release, IFNγ by MAGPIX multiplex bead assay
Format: cell-based, human
Settings: for Percent of maximal response to individual gluten peptides, IFNg: after oral gluten challenge; for IFNγ WB MAGPIX % max Mean: n = 8, blood after oral gluten challenge, individual peptides 5 μM (Peptide 2* of P14, Pepscan: 10 μg/mL (5.45 μM))

Substance | Percent of maximal response to individual gluten peptides, IFNg (Subject 2, Max. 116 pg/mL) | Percent of maximal response to individual gluten peptides, IFNg (Subject 3, Max. 799 pg/mL) | Percent of maximal response to individual gluten peptides, IFNg (Subject 4, Max. 136 pg/mL) | Percent of maximal response to individual gluten peptides, IFNg (Subject 6, Max. 72 pg/mL) | Percent of maximal response to individual gluten peptides, IFNg (Subject 7, Max. 17 pg/mL) | Percent of maximal response to individual gluten peptides, IFNg (Subject 8, Max. 47 pg/mL) | Percent of maximal response to individual gluten peptides, IFNg (Subject 9, Max. 67 pg/mL) | Percent of maximal response to individual gluten peptides, IFNg (Subject 10, Max. 229 pg/mL) | IFNγ WB MAGPIX % max Mean
(pE)QPFPQPEQPFPLQPEQP-amide ([pGlu]QPFPQPEQPFPLQPEQP-NH2; SMILES CC(C)C[C@H](NC(=O)[C@@H]1CCCN1C(=O)[C@H](Cc1ccccc1)NC(=O)[C@@H]1CCCN1C(=O)[C@H](CCC(N)=O)NC(=O)[C@H](CCC(=O)O)NC(=O)[C@@H]1CCCN1C(=O)[C@H](CCC(N)=O)NC(=O)[C@@H]1CCCN1C(=O)[C@H](Cc1ccccc1)NC(=O)[C@@H]1CCCN1C(=O)[C@H](CCC(N)=O)NC(=O)[C@@H]1CCC(=O)N1)C(=O)N[C@@H](CCC(N)=O)C(=O)N1CCC[C@H]1C(=O)N[C@@H](CCC(=O)O)C(=O)N[C@@H](CCC(N)=O)C(=O)N1CCC[C@H]1C(N)=O) [Peptide 6] | 58 % of max | 10 % of max | 54 % of max | 4 % of max | 2 % of max | 6 % of max | 69 % of max | 20 % of max | 28 % max
(pE)QPFPQPEQPFSQQ-amide ([pGlu]QPFPQPEQPFSQQ-NH2; SMILES NC(=O)CC[C@H](NC(=O)[C@H](CCC(N)=O)NC(=O)[C@H](CO)NC(=O)[C@H](Cc1ccccc1)NC(=O)[C@@H]1CCCN1C(=O)[C@H](CCC(N)=O)NC(=O)[C@H](CCC(=O)O)NC(=O)[C@@H]1CCCN1C(=O)[C@H](CCC(N)=O)NC(=O)[C@@H]1CCCN1C(=O)[C@H](Cc1ccccc1)NC(=O)[C@@H]1CCCN1C(=O)[C@H](CCC(N)=O)NC(=O)[C@@H]1CCC(=O)N1)C(N)=O) [Peptide 7] | 60 % of max | 2 % of max | 8 % of max | 0 % of max | 0 % of max | 0 % of max | 0 % of max | 1 % of max | 9 % max
(pE)QPFPQPEQPIPVQPEQS-amide ([pGlu]QPFPQPEQPIPVQPEQS-NH2; SMILES CC[C@H](C)[C@H](NC(=O)[C@@H]1CCCN1C(=O)[C@H](CCC(N)=O)NC(=O)[C@H](CCC(=O)O)NC(=O)[C@@H]1CCCN1C(=O)[C@H](CCC(N)=O)NC(=O)[C@@H]1CCCN1C(=O)[C@H](Cc1ccccc1)NC(=O)[C@@H]1CCCN1C(=O)[C@H](CCC(N)=O)NC(=O)[C@@H]1CCC(=O)N1)C(=O)N1CCC[C@H]1C(=O)N[C@H](C(=O)N[C@@H](CCC(N)=O)C(=O)N1CCC[C@H]1C(=O)N[C@@H](CCC(=O)O)C(=O)N[C@@H](CCC(N)=O)C(=O)N[C@@H](CO)C(N)=O)C(C)C) [Peptide 4] | 33 % of max | 13 % of max | 24 % of max | 1 % of max | 1 % of max | 9 % of max | 29 % of max | 11 % of max | 15 % max
(pE)QPFPQPEQPTPIQPEQP-amide ([pGlu]QPFPQPEQPTPIQPEQP-NH2; SMILES CC[C@H](C)[C@H](NC(=O)[C@@H]1CCCN1C(=O)[C@@H](NC(=O)[C@@H]1CCCN1C(=O)[C@H](CCC(N)=O)NC(=O)[C@H](CCC(=O)O)NC(=O)[C@@H]1CCCN1C(=O)[C@H](CCC(N)=O)NC(=O)[C@@H]1CCCN1C(=O)[C@H](Cc1ccccc1)NC(=O)[C@@H]1CCCN1C(=O)[C@H](CCC(N)=O)NC(=O)[C@@H]1CCC(=O)N1)[C@@H](C)O)C(=O)N[C@@H](CCC(N)=O)C(=O)N1CCC[C@H]1C(=O)N[C@@H](CCC(=O)O)C(=O)N[C@@H](CCC(N)=O)C(=O)N1CCC[C@H]1C(N)=O) [Peptide 5] | 39 % of max | 5 % of max | 13 % of max | 1 % of max | 6 % of max | 0 % of max | 0 % of max | 27 % of max | 11 (11) % max
(pE)QPPFSEQEQPVLPQ-amide (N-terminal pyroglutamate; C-terminal amide) [Peptide 13] | 47 % of max | 3 % of max | 0 % of max | 5 % of max | 1 % of max | 0 % of max | 0 % of max | 0 % of max | 7 % max
(pE)QPYPQPELPYPQPQ-amide ([pGlu]QPYPQPELPYPQPQ-NH2; SMILES CC(C)C[C@H](NC(=O)[C@H](CCC(=O)O)NC(=O)[C@@H]1CCCN1C(=O)[C@H](CCC(N)=O)NC(=O)[C@@H]1CCCN1C(=O)[C@H](Cc1ccc(O)cc1)NC(=O)[C@@H]1CCCN1C(=O)[C@H](CCC(N)=O)NC(=O)[C@@H]1CCC(=O)N1)C(=O)N1CCC[C@H]1C(=O)N[C@@H](Cc1ccc(O)cc1)C(=O)N1CCC[C@H]1C(=O)N[C@@H](CCC(N)=O)C(=O)N1CCC[C@H]1C(=O)N[C@@H](CCC(N)=O)C(N)=O) [Peptide 15] | 46 % of max | 5 % of max | 24 % of max | 5 % of max | 6 % of max | 4 % of max | 100 % of max | 7 % of max | 25 % max
(pE)SGEGSFQPSQENPQ-amide ([pGlu]SGEGSFQPSQENPQ-NH2; SMILES NC(=O)CC[C@H](NC(=O)[C@@H]1CCCN1C(=O)[C@H](CC(N)=O)NC(=O)[C@H](CCC(=O)O)NC(=O)[C@H](CCC(N)=O)NC(=O)[C@H](CO)NC(=O)[C@@H]1CCCN1C(=O)[C@H](CCC(N)=O)NC(=O)[C@H](Cc1ccccc1)NC(=O)[C@H](CO)NC(=O)CNC(=O)[C@H](CCC(=O)O)NC(=O)CNC(=O)[C@H](CO)NC(=O)[C@@H]1CCC(=O)N1)C(N)=O) [Peptide 9] | 19 % of max | 0 % of max | 0 % of max | 0 % of max | 0 % of max | 0 % of max | 0 % of max | 0 % of max | 2 % max
